From patent US20130177609A1, “Compositions and Methods for Increasing Bioavailability of Topical Ophthalmic Drugs” (priority 2008, published 2013)
Values after ≈ are worked out from the molar mass of the structure shown.

Legend:
[1] = Solubility in water of compound having Formula III; format: physicochemical; conditions: pH 7, water, pH of about 7
[2] = Example 1: ocular tissue pharmacokinetics after topical dose, increasing dose volume at constant drug concentration; format: in vivo, pigmented male rabbits (Dutch Belted); conditions: for AUC(0-t) / DNAUC / Cmax / Tmax: topical ocular; for Cmax / Tmax: male, Dutch Belted, rabbit, topical or ocular
Protocol: An aqueous suspension comprising 0.1 mg/mL of the compound having Formula III (BOL-303242-X), 100 mg/mL PEG 3350, and 10 mg/mL Tween® 80 was prepared substantially as disclosed above.
This study was carried out using a non-crossover design and a total of 84 naive pigmented male rabbits (Dutch Belted). Each rabbit was arbitrarily assigned to one of three dose groups.
On the day of dosing, each animal received a topical ocular dose of the suspension. Animals in Group 1 received a […] instillation, Group 2 received a 30-μL instillation and Group 3 received a 100-μL instillation. The target dose levels for these groups were 1, 3 and 10 μg/eye, respectively. The test composition was shipped to the test site as a ready-to-use suspension.
At predetermined time intervals after dosing, rabbits (four per collection time) were euthanized and the eyes enucleated and dissected. Samples of tear, conjunctiva, cornea, aqueous humor and iris/ciliary body were obtained from each animal and frozen until being shipped on dry ice to the analytical laboratory. Samples were collected at 0.0833, 0.25, 0.5, 1, 2, 4 and 6 hour after dosing. Concentrations of BOL-303242-X in ocular tissue samples were determined by LC/MS/MS. One or more samples of each tissue had concentrations that were below the lower limit of quantitation (“LLQ”). These samples were assigned a value of 0.5 times the LLQ for the purpose of calculating a mean concentration for pharmacokinetic (“PK”) analysis. In addition, the BOL-303242-X concentration measured in one tear sample collected at 6 hour was more than 100-fold higher than any other 6-hour sample for the same dose group. This value was considered to be an outlier, and was not included in any calculations.
Non-compartmental methods were used for pharmacokinetic analysis of concentration versus time data (WinNonlin version 5.2). Due to the destructive sampling regimen employed in this study average composite data were used in the PK analysis.

[3] = Conjunctiva, 10 μL of 0.1 mg/mL suspension (1 μg)
[4] = Conjunctiva, 30 μL of 0.1 mg/mL suspension (3 μg)
[5] = Conjunctiva, 100 μL of 0.1 mg/mL suspension (10 μg)
[6] = Cornea, 10 μL of 0.1 mg/mL suspension (1 μg)
[7] = Cornea, 30 μL of 0.1 mg/mL suspension (3 μg)
[8] = Cornea, 100 μL of 0.1 mg/mL suspension (10 μg)
[9] = Iris/Ciliary Body, 10 μL of 0.1 mg/mL suspension (1 μg)
[10] = Iris/Ciliary Body, 30 μL of 0.1 mg/mL suspension (3 μg)
[11] = Iris/Ciliary Body, 100 μL of 0.1 mg/mL suspension (10 μg)
[12] = Tear, 10 μL of 0.1 mg/mL suspension (1 μg)
[13] = Tear, 30 μL of 0.1 mg/mL suspension (3 μg)
[14] = Tear, 100 μL of 0.1 mg/mL suspension (10 μg)
[15] = 1 ug, Conjunctiva, 10 μL of 0.1 mg/mL suspension (1 μg)
[16] = 1 ug, Cornea, 10 μL of 0.1 mg/mL suspension (1 μg)
[17] = 1 ug, Iris/Ciliary Body, 10 μL of 0.1 mg/mL suspension (1 μg)
[18] = 1 ug, Tear, 10 μL of 0.1 mg/mL suspension (1 μg)
[19] = 3 ug, Conjunctiva, 30 μL of 0.1 mg/mL suspension (3 μg)
[20] = 3 ug, Cornea, 30 μL of 0.1 mg/mL suspension (3 μg)
[21] = 3 ug, Iris/Ciliary Body, 30 μL of 0.1 mg/mL suspension (3 μg)
[22] = 3 ug, Tear, 30 μL of 0.1 mg/mL suspension (3 μg)
[23] = 10 ug, Conjunctiva, 100 μL of 0.1 mg/mL suspension (10 μg)
[24] = 10 ug, Cornea, 100 μL of 0.1 mg/mL suspension (10 μg)
[25] = 10 ug, Iris/Ciliary Body, 100 μL of 0.1 mg/mL suspension (10 μg)
[26] = 10 ug, Tear, 100 μL of 0.1 mg/mL suspension (10 μg)

solubility [1]: ~0.2 µg/mL (≈ 0.432 µM) | AUC(0-t) [2, 3]: 245 ng·h/g | DNAUC [2, 3]: 245 ng*hr/g ÷ μg dose | AUC(0-t) [2, 4]: 487 ng·h/g | DNAUC [2, 4]: 162 ng*hr/g ÷ μg dose | AUC(0-t) [2, 5]: 741 ng·h/g | DNAUC [2, 5]: 74.1 ng*hr/g ÷ μg dose | AUC(0-t) [2, 6]: 270 ng·h/g | DNAUC [2, 6]: 270 ng*hr/g ÷ μg dose | AUC(0-t) [2, 7]: 634 ng·h/g | DNAUC [2, 7]: 211 ng*hr/g ÷ μg dose | AUC(0-t) [2, 8]: 955 ng·h/g | DNAUC [2, 8]: 95.5 ng*hr/g ÷ μg dose | AUC(0-t) [2, 9]: 32.0 ng·h/g | DNAUC [2, 9]: 32.0 ng*hr/g ÷ μg dose | AUC(0-t) [2, 10]: 33.8 ng·h/g | DNAUC [2, 10]: 11.3 ng*hr/g ÷ μg dose | AUC(0-t) [2, 11]: 30.5 ng·h/g | DNAUC [2, 11]: 3.05 ng*hr/g ÷ μg dose | AUC(0-t) [2, 12]: 8870 ng·h/g | DNAUC [2, 12]: 8870 ng*hr/g ÷ μg dose | AUC(0-t) [2, 13]: 12600 ng·h/g | DNAUC [2, 13]: 4200 ng*hr/g ÷ μg dose | AUC(0-t) [2, 14]: 25600 ng·h/g | DNAUC [2, 14]: 2560 ng*hr/g ÷ μg dose | Cmax ([2]; 1 ug, Aqueous Humor, 10 μL of 0.1 mg/mL suspension (1 μg)): < 1 ng/mL | Cmax [2, 15]: 292 ± 137 ng/g | Tmax [2, 15]: 4.98 min | Cmax [2, 16]: 288 ± 116 ng/g | Tmax [2, 16]: 15 min | Cmax [2, 17]: 19.6 ± 29.8 ng/g | Tmax [2, 17]: 60 min | Cmax [2, 18]: 16300 ± 7000 ng/g | Tmax [2, 18]: 4.98 min | Cmax ([2]; 3 ug, Aqueous Humor, 30 μL of 0.1 mg/mL suspension (3 μg)): < 1 ng/mL | Cmax [2, 19]: 684 ± 446 ng/g | Tmax [2, 19]: 4.98 min | Cmax [2, 20]: 716 ± 234 ng/g | Tmax [2, 20]: 4.98 min | Cmax [2, 21]: 13.1 ± 19 ng/g | Tmax [2, 21]: 120 min | Cmax [2, 22]: 28100 ± 11300 ng/g | Tmax [2, 22]: 15 min | Cmax ([2]; 10 ug, Aqueous Humor, 100 μL of 0.1 mg/mL suspension (10 μg)): < 1 ng/mL | Cmax [2, 23]: 1050 ± 531 ng/g | Tmax [2, 23]: 4.98 min | Cmax [2, 24]: 955 ± 619 ng/g | Tmax [2, 24]: 4.98 min | Cmax [2, 25]: 11.3 ± 8.05 ng/g | Tmax [2, 25]: 60 min | Cmax [2, 26]: 36700 ± 21400 ng/g | Tmax [2, 26]: 15 min
SMILES: Cc1ccc2c(NCC(O)(CC(C)(C)c3cc(F)cc4c3OCC4)C(F)(F)F)cccc2n1 (centres unmarked) [BOL-303242-X]
increase in exposure with increasing instillation volume ([2]; tear, cornea and conjunctiva, 10, 30, 100 μL of 0.1 mg/mL): less than proportional to the administered dose/volume
